Active and inactive are the calls of the source. No cut-off for these calls is given here.
Key:
MGC-803 [1] = assay: Induction of cell cycle arrest in human MGC-803 cells assessed as accumulation of cells at G0/G1 phase at 5 uM incubated for 48 hrs by propidium iodide staining based flow cytometry (reference value: 50.67%); format: functional
MGC-803 [2] = assay: Induction of apoptosis in human MGC-803 cells assessed as necrotic cells at 5 uM incubated for 48 hrs by Annexin-V FITC and PI staining based flow cytometry (reference value: 0.68%); format: functional
MGC-803 [3] = assay: Induction of apoptosis in human MGC-803 cells assessed as apoptosis rate at 10 uM incubated for 48 hrs by Annexin-V FITC and PI staining based flow cytometry (reference value: 0.42%); format: functional
HeLa = assay: Anticancer activity against human HeLa cells assessed as inhibition of cell growth incubated for 48 hrs by MTT assay; format: functional, cell-based
MGC-803 [4] = assay: Induction of apoptosis in human MGC-803 cells assessed as necrotic cells at 10 uM incubated for 48 hrs by Annexin-V FITC and PI staining based flow cytometry (reference value: 0.68%); format: functional
MGC-803 [5] = assay: Induction of cell cycle arrest in human MGC-803 cells assessed as accumulation of cells at S phase at 5 uM incubated for 48 hrs by propidium iodide staining based flow cytometry (reference value: 33.22%); format: functional
T-24 = assay: Anticancer activity against human T-24 cells assessed as inhibition of cell growth incubated for 48 hrs by MTT assay; format: functional, cell-based; conditions: T-24, 48 h
MGC-803 [6] = assay: Anticancer activity against human MGC-803 cells assessed as inhibition of cell growth incubated for 48 hrs by MTT assay; format: functional, cell-based; conditions: MGC-803, 48 h
MGC-803 [7] = assay: Induction of cell cycle arrest in human MGC-803 cells assessed as accumulation of cells at G0/G1 phase at 2.5 uM incubated for 48 hrs by propidium iodide staining based flow cytometry (reference value: 50.67%); format: functional
MGC-803 [8] = assay: Induction of cell cycle arrest in human MGC-803 cells assessed as accumulation of cells at G2/M phase at 10 uM incubated for 48 hrs by propidium iodide staining based flow cytometry (reference value: 16.81%); format: functional
MGC-803 [9] = assay: Induction of apoptosis in human MGC-803 cells assessed as late apoptotic cells at 5 uM incubated for 48 hrs by Annexin-V FITC and PI staining based flow cytometry (reference value: 0.81%); format: functional
MGC-803 [10] = assay: Induction of apoptosis in human MGC-803 cells assessed as late apoptotic cells at 2.5 uM incubated for 48 hrs by Annexin-V FITC and PI staining based flow cytometry (reference value: 0.81%); format: functional
HepG2 = assay: Anticancer activity against human HepG2 cells assessed as inhibition of cell growth incubated for 48 hrs by MTT assay; format: functional, cell-based; conditions: HepG2, 48 h
MGC-803 [11] = assay: Induction of apoptosis in human MGC-803 cells assessed as chromatin condensation incubated for 48 hrs by Hoechst 33258 staining based fluorescence microscopic analysis; format: functional, cell-based; conditions: dose 2.5-10 µM
MGC-803 [12] = assay: Induction of apoptosis in human MGC-803 cells assessed as late apoptotic cells at 10 uM incubated for 48 hrs by Annexin-V FITC and PI staining based flow cytometry (reference value: 0.81%); format: functional
MGC-803 [13] = assay: Induction of apoptosis in human MGC-803 cells assessed as viable cells at 10 uM incubated for 48 hrs by Annexin-V FITC and PI staining based flow cytometry (reference value: 98.3%); format: functional; conditions: read-out: Activity
MGC-803 [14] = assay: Induction of apoptosis in human MGC-803 cells assessed as apoptosis rate at 5 uM incubated for 48 hrs by Annexin-V FITC and PI staining based flow cytometry (reference value: 0.42%); format: functional
MGC-803 [15] = assay: Induction of mitochondrial membrane potential loss in human MGC-803 cells at 2.5 uM incubated for 10 to 24 hrs by JC-1 staining based fluorescence microscopic assay; format: functional, cell-based; conditions: time 10-24 hrs
MGC-803 [16] = assay: Induction of apoptosis in human MGC-803 cells assessed as viable cells at 5 uM incubated for 48 hrs by Annexin-V FITC and PI staining based flow cytometry (reference value: 98.3%); format: functional; conditions: read-out: Activity
MGC-803 [17] = assay: Induction of cell cycle arrest in human MGC-803 cells assessed as accumulation of cells at S phase at 2.5 uM incubated for 48 hrs by propidium iodide staining based flow cytometry (reference value: 33.22%); format: functional
MGC-803 [18] = assay: Induction of apoptosis in human MGC-803 cells assessed as early apoptotic cells at 2.5 uM incubated for 48 hrs by Annexin-V FITC and PI staining based flow cytometry (reference value: 0.20%); format: functional
MGC-803 [19] = assay: Induction of cell cycle arrest in human MGC-803 cells assessed as accumulation of cells at G0/G1 phase at 10 uM incubated for 48 hrs by propidium iodide staining based flow cytometry (reference value: 50.67%); format: functional
MGC-803 [20] = assay: Induction of apoptosis in human MGC-803 cells assessed as increase in apoptotic nuclei incubated for 48 hrs by Hoechst 33258 staining based fluorescence microscopic analysis; format: functional, cell-based; conditions: dose 2.5-10 µM
MGC-803 [21] = assay: Induction of cell cycle arrest in human MGC-803 cells assessed as accumulation of cells at S phase at 10 uM incubated for 48 hrs by propidium iodide staining based flow cytometry (reference value: 33.22%); format: functional
MGC-803 [22] = assay: Induction of apoptosis in human MGC-803 cells assessed as viable cells at 2.5 uM incubated for 48 hrs by Annexin-V FITC and PI staining based flow cytometry (reference value: 98.3%); format: functional; conditions: read-out: Activity
[23] = Cytotoxicity against human LO2 cells assessed as reduction in cell viability incubated for 48 hrs by MTT assay; format: toxicity, cell-based, L02
MGC-803 [24] = assay: Induction of apoptosis in human MGC-803 cells assessed as necrotic cells at 2.5 uM incubated for 48 hrs by Annexin-V FITC and PI staining based flow cytometry (reference value: 0.68%); format: functional
MGC-803 [25] = assay: Induction of cell cycle arrest in human MGC-803 cells assessed as accumulation of cells at G2/M phase at 5 uM incubated for 48 hrs by propidium iodide staining based flow cytometry (reference value: 16.81%); format: functional
MGC-803 [26] = assay: Induction of apoptosis in human MGC-803 cells assessed as early apoptotic cells at 10 uM incubated for 48 hrs by Annexin-V FITC and PI staining based flow cytometry (reference value: 0.20%); format: functional
MGC-803 [27] = assay: Induction of cell cycle arrest in human MGC-803 cells assessed as accumulation of cells at G2/M phase at 2.5 uM incubated for 48 hrs by propidium iodide staining based flow cytometry (reference value: 16.81%); format: functional
MGC-803 [28] = assay: Induction of apoptosis in human MGC-803 cells assessed as apoptosis rate at 2.5 uM incubated for 48 hrs by Annexin-V FITC and PI staining based flow cytometry (reference value: 0.42%); format: functional
MGC-803 [29] = assay: Induction of apoptosis in human MGC-803 cells assessed as early apoptotic cells at 5 uM incubated for 48 hrs by Annexin-V FITC and PI staining based flow cytometry (reference value: 0.20%); format: functional
MGC-803 [30] = assay: Induction of reactive oxygen species generation in human MGC-803 cells at 2.5 to 10 uM incubated for 48 hrs by DCFH-DA staining based fluorescence microscopic analysis; format: functional, cell-based; conditions: dose 2.5-10 µM

With `CC(C)c1ccc2c(c1)CC[C@H]1[C@](C)(C(=O)OCc3cn(CC4CN(c5ccc(Br)cc5)C(=O)O4)nn3)CCC[C@]21C` (stereo partly drawn) the Activity (MGC-803 [1]) was 54.14%, the Activity (MGC-803 [2]) was 2.9% and the Activity (MGC-803 [3]) was 33.34%. For the same molecule, the IC50 (HeLa) was 25.3 µM, the Activity (MGC-803 [4]) was 1.25% and the Activity (MGC-803 [5]) was 33.63%. It also gave an IC50 (T-24) of 14.2 µM, an IC50 (MGC-803 [6]) of 3.18 µM and an Activity (MGC-803 [7]) of 52.14%. The Activity (MGC-803 [8]) was 11.23%, the Activity (MGC-803 [9]) was 12% and the Activity (MGC-803 [10]) was 6.25%. The IC50 (HepG2) was 11.7 µM, the Activity (MGC-803 [11]) was “Dose-Dependent Effect” and the Activity (MGC-803 [12]) was 2.64%. For the same molecule, the viability at 10 µM (MGC-803 [13]) was 14%, the Activity (MGC-803 [14]) was 8.87% and the Activity (MGC-803 [15]) was “Active”. For the same molecule, the viability at 5 µM (MGC-803 [16]) was 68.8%, the Activity (MGC-803 [17]) was 34.79% and the Activity (MGC-803 [18]) was 4.89%. The Activity (MGC-803 [19]) was 55.64%, the Activity (MGC-803 [20]) was “Dose-Dependent Effect” and the Activity (MGC-803 [21]) was 33.22%. It also gave a viability at 2.5 µM (MGC-803 [22]) of 87.5%, an IC50 at 48 h [23] of 40 µM and an Activity (MGC-803 [24]) of 1.32%. It also gave an Activity (MGC-803 [25]) of 12.52%, an Activity (MGC-803 [26]) of 82.1% and an Activity (MGC-803 [27]) of 13.7%. For the same molecule, the Activity (MGC-803 [28]) was 6%, the Activity (MGC-803 [29]) was 16.2% and the Activity (MGC-803 [30]) was “Active”.
